Reference: article PMC8329197, “Compounds targeting OSBPL7 increase ABCA1-dependent cholesterol efflux preserving kidney function in two models of kidney disease” (Nature Communications, 2021)
Values joined by “and” are separate entries in the source; they are usually repeats but may differ in a detail not shown here. Identical values can stand only once.

Assays:
ABCA1 protein = experiment: ABCA1 western blot in podocyte whole-cell lysates; format: cell-based, human; conditions: Cpd G 10 µM, Cpd A 5 µM; podocytes
Description: Cell lines were purchased from ATCC and subcultured for no more than passage 15, except for human podocytes, which were originally from Dr Jochen Reiser. Conditionally immortalized human podocytes were cultured under permissive conditions at 33 °C, in RPMI medium (Corning) containing 10% FBS (GIBCO), 1% penicillin/streptomycin, 0.01 mg/ml recombinant human insulin, 0.0055 mg/ml human transferrin (substantially iron-free), and 0.005 μg/ml sodium selenite (ITS, Corning). To induce differentiation, podocytes were cultured at 37 °C for 14 days in RPMI medium containing 10% FBS (GIBCO) and 1% penicillin/streptomycin. Differentiated podocytes were starved in RPMI-0.2% FBS for 18 h and then treated with 1 μM, 5 μM, and 10 μM of compounds freshly prepared in DMSO for 18 h at 37 °C as indicated.
Lysates, or cell fractions were incubated in Laemmli buffer at 55 °C for 10 min under reducing conditions. A total of 30 μg of protein from cell lysates or one-third of the volume collected in cell fraction preparations was separated by SDS-PAGE in 4–20% gradient gels (Biorad) and proteins were then transferred to PVDF membranes. […] Signals were detected after incubation with Westernbright ECL HRP substrate (Advansta) and luminescence signals were captured with Azure C600 Gel Imaging workstation (Azure Biosystems Inc, USA) or X-ray films.

Free fraction, man = format: in vitro ADME; conditions: rat
[1] = test system: THP1 macrophages transfected with siRNA; experiment: apoAI-mediated cholesterol efflux in siRNA-transfected THP1 macrophages; format: cell-based, human; set-up: unit not given here; conditions: Cpd G 5 µM; for APOA1-MEDIATED CHOLESTEROL EFFLUX: single experiments
Description: siRNA pools specific for human OSBPL7, human CB1R and non target siRNA negative control are summarized in Supplementary Table 6. THP1 monocytes were seeded at a density of 80,000 cells/well in 96-well plates and differentiated with PMA as described above. After 72 h, medium was replaced by 50 µl of fresh medium per well. Cells were then transfected using Viromer Blue reagent (Origene) following the manufacturer’s directions. Briefly, 10 µl of siRNA (5 µM) was mixed with 90 µl of Viromer Blue (diluted 1% v/v in supplied buffer). After 15 min incubation, siRNA-transfection reagent complexes were diluted 1:6.5 in fresh medium and added in a volume of 50 µl per well. After 24 h, cells were then loaded with cholesterol by incubation with acetylated LDL (25 µg/ml) in RPMI medium, 1% FBS, 100 nM PMA, 2 µCi ^3H-cholesterol for 24 h. A set of wells containing transfected cells was set aside to verify transfection efficiency by RT-PCR. The cholesterol-loaded macrophages were then incubated in the presence of Cpd G 5 μM, or vehicle (0.1% DMSO) in RPMI medium w/o Phenol Red, 0.2% BSA) for an additional 24 h. Cholesterol efflux was then measured as described above.

Free fraction, rat = format: in vitro ADME; conditions: read-out: free fraction rat / man [%]
Hepatocytes Clint, human = format: in vitro ADME
Col4a3 KO mice [2] = experiment: Alport syndrome model: survival study, treatment from 6 weeks of age
Col4a3 KO mice [3] = experiment: Alport syndrome model: mesangial expansion score in PAS-stained kidney sections; format: in vivo, mouse; conditions: age 8 weeks, Cpd G 100 mg/Kg/day
Description: Formalin-fixed paraffin-embedded kidney cortex sections 4 μm thick were stained with Periodic acid-Schiff (PAS). The slides were analyzed by a renal pathologist in a double-blind design. Glomerular sclerosis, (global and segmental), podocyte hypertrophy and podocyte hyperplasia were expressed as the percentage of glomeruli found with these abnormalities. Tubular microcysts and interstitial inflammation were scored on a 0–4 scale where 0 = 0%, 0.5 = 1–10%, 1 = 11–25%, 2: 26–50 %, 3: 51–75%, and 4 = more than 75% damage.

[4] = test system: Adriamycin (ADR)-induced nephropathy in Balb/c mice; experiment: ADR nephropathy: IL-1β and MCP-1 mRNA in kidney cortex; format: in vivo, mouse
Description: RNA was isolated using RNEasy Plus Mini kit (Qiagen). Reverse transcription was performed using qScript cDNA Super Mix (Quantabio) according to the manufacturer’s instructions. Quantitative real-time PCR was performed using TaqMan Fast Universal PCR Master Mix and Taqman gene expression assays (Supplementary Table 7).

SMILES | ABCA1 protein levels in whole-cell lysates (ABCA1 protein) | fraction unbound (Free fraction, man) | APOA1-MEDIATED CHOLESTEROL EFFLUX, mean ([1]; siCB1R cells) | APOA1-MEDIATED CHOLESTEROL EFFLUX ([1]; siCB1R cells) | APOA1-MEDIATED CHOLESTEROL EFFLUX, mean ([1]; siCTRL cells) | APOA1-MEDIATED CHOLESTEROL EFFLUX ([1]; siCTRL cells) | fraction unbound (Free fraction, rat) | Hepatocytes Clint (Fh%) (r/h) (Hepatocytes Clint, human) | SURVIVAL CURVE: day with status 1= dead (Col4a3 KO mice [2]; Col4A3 KO, Cpd G 100 mg/Kg/day started at week 6, single animals) | Increased life span compared to controls (Col4a3 KO mice [2]; Col4a3 KO, treatment initiated at 6 weeks of age) | MESANGIAL EXPANSION (scale 1-5), Median (Col4a3 KO mice [3]) | MESANGIAL EXPANSION (scale 1-5) (Col4a3 KO mice [3]; single animals) | IL1β in kidney cortex ([4]; ADR + Cpd G) | MCP-1 in kidney cortex ([4]; ADR + Cpd G) | Relative MCP1/PGK1 mRNA Expression (RQ) ([4]; kidney cortexes after ADR injection, No ADR group as reference, individual mice) | Relative MCP1/PGK1 mRNA Expression (RQ), Median ([4]; kidney cortexes after ADR injection, group median) | Relative IL1-B/PGK1 mRNA Expression (RQ) ([4]; kidney cortexes, ADR, 100 mg/Kg/Day for 28 days, No ADR group as reference, individual mice, 100 mg/kg/day) | Relative IL1-B/PGK1 mRNA Expression (RQ), Median ([4]; kidney cortexes, ADR, 100 mg/Kg/Day for 28 days, group median)
O=C(N[C@@H]1CCCC[C@H]1O)c1ccc(OCC(F)(F)F)c(-c2ccc(Cl)c(Cl)c2)n1 [Cpd A] | significantly increased ABCA1 protein levels |  |  |  |  |  |  |  |  |  |  |  |  |  |  |  |  | 
O=C(N[C@@H]1CCCC[C@H]1O)c1cnc(OCC(F)(F)F)c(-c2ccc(Cl)c(Cl)c2)c1 [Cpd G] |  | < 0.01 | 4.467 | 5.6 and 4.3 and 3.5 | 4.267 | 5 and 4.8 and 3 | < 0.01 | > 80% | 67 days and 70 days and 73 days and 78 days | approximately 15% | 2 | 2 and 2.5 and 1.5 | reduced | reduced | 0.39 and 4.08 (2×) and 0.99 and 0.91 and 1.65 (2×) and 0.3536 and 0.2392 and 0.3907 and 0.9918 and 0.906 and 0.35 and 0.24 | 0.91 | 0.44 and 1.49 and 0.38 and 0.75 and 0.61 and 2.626 and 0.452 and 0.4443 and 1.494 and 0.3797 and 0.7453 and 0.6111 and 2.63 and 0.45 | 0.61
